pIC50, pKi: −log10 of the molar value. Each block holds one compound with its values, some of them ahead of it. The source made the active and inactive calls. The rule behind the calls is not given here.
Assays:
[1] = molecular target: T1, 5-hydroxytryptamine receptor 6 (Homo sapiens, UniProt P50406); experiment: Antagonist activity at human cloned 5HT6 receptor expressed in human HeLa cells assessed as blockage of 5-HT-stimulated cAMP formation; assay type: functional, cell-based
[2] = molecular target: T1, 5-hydroxytryptamine receptor 6; experiment: Displacement of [3H]LSD from human cloned 5HT6 receptor expressed in human HeLa cells; assay type: cell-based
[3] = molecular target: 5-hydroxytryptamine receptor 2B (Homo sapiens, UniProt P41595); experiment: Binding affinity to 5HT2b receptor
Chain of 5-hydroxytryptamine receptor 2B (P41595 whole entry): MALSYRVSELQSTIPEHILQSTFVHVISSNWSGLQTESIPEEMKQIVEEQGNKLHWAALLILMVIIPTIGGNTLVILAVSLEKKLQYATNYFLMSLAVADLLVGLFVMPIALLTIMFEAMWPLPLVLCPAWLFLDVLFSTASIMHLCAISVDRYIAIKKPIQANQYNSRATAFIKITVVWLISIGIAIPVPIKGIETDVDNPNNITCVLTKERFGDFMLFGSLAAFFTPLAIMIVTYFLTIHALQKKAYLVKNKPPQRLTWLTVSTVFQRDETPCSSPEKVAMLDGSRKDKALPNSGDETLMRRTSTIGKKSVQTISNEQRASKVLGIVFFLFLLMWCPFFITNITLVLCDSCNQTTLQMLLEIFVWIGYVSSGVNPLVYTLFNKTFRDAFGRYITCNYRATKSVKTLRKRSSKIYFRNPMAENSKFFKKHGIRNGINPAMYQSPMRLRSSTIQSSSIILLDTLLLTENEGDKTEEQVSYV

Cytochrome P450 2C9 = Cytochrome P450 2C9 (Homo sapiens, UniProt P11712); experiment: Inhibition of CYP2C9; assay type: ADME
Chain of Cytochrome P450 2C9 (P11712 whole entry): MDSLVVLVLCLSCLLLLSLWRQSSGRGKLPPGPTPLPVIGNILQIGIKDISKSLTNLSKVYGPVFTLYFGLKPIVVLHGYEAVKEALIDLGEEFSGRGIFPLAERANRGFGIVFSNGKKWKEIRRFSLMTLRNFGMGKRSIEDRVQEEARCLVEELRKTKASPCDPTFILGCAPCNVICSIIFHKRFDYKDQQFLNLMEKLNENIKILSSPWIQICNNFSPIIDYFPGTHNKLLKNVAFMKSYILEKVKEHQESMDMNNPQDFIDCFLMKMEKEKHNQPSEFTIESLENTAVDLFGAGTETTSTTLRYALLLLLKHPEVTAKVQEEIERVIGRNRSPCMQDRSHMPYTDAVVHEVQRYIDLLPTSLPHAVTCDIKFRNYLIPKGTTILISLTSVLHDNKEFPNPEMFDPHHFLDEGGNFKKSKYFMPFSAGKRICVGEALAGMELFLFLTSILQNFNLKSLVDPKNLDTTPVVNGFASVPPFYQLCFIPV

[4] = Oral bioavailability in Sprague-Dawley rat at 10 mg/kg; assay type: ADME, organism-based; settings: in vivo
[5] = molecular target: 5-hydroxytryptamine receptor 1B (Homo sapiens, UniProt P28222); experiment: Binding affinity to 5HT1b receptor
Chain of 5-hydroxytryptamine receptor 1B (P28222 whole entry): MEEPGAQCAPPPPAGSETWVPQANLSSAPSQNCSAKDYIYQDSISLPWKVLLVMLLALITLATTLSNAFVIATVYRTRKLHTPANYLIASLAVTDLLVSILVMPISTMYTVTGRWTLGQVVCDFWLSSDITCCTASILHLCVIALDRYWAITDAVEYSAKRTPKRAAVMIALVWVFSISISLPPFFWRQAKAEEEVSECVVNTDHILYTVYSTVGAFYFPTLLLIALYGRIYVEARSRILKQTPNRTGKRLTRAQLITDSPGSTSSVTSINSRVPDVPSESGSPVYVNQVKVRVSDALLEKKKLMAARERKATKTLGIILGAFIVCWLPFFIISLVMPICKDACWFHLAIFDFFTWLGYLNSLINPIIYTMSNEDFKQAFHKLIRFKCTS

[6] = molecular target: T2, 5-hydroxytryptamine receptor 2C (Homo sapiens, UniProt P28335); experiment: Binding affinity to 5HT2c receptor
T2 sequence (P28335 whole entry): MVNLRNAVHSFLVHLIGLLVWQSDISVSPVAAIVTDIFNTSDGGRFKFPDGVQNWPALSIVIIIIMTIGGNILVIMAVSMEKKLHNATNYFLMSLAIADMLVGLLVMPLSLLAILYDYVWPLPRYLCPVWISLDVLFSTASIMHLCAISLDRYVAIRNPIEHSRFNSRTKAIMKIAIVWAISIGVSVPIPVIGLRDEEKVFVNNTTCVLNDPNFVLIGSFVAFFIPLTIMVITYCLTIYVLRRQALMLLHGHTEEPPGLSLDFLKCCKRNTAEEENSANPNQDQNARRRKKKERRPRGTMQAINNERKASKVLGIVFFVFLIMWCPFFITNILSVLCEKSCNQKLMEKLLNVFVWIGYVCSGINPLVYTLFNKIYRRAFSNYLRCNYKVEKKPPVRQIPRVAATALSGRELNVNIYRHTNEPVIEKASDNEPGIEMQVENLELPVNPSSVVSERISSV

[7] = molecular target: T3, Alpha-2A adrenergic receptor (Homo sapiens, UniProt P08913); experiment: Binding affinity to adrenergic alpha2A receptor
T3 sequence (P08913 whole entry): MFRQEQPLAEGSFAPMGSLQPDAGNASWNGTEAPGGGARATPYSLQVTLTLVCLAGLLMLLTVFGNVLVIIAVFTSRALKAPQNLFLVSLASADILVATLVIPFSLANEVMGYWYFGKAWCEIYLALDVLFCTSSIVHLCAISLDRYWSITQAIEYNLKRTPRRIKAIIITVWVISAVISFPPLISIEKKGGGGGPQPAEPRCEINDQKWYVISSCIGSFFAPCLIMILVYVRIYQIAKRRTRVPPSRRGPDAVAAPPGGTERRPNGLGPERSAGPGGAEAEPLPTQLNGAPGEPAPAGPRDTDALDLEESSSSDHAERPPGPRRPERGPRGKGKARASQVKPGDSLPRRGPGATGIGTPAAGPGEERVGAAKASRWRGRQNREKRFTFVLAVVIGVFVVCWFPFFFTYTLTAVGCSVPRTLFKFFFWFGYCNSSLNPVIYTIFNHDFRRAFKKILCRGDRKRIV

[8] = Metabolic stability in human microsomes assessed as half life; assay type: ADME, Microsome
Cytochrome P450 2D6 = Cytochrome P450 2D6 (Homo sapiens, UniProt P10635); experiment: Inhibition of CYP2D6; assay type: ADME
Chain of Cytochrome P450 2D6 (P10635 whole entry): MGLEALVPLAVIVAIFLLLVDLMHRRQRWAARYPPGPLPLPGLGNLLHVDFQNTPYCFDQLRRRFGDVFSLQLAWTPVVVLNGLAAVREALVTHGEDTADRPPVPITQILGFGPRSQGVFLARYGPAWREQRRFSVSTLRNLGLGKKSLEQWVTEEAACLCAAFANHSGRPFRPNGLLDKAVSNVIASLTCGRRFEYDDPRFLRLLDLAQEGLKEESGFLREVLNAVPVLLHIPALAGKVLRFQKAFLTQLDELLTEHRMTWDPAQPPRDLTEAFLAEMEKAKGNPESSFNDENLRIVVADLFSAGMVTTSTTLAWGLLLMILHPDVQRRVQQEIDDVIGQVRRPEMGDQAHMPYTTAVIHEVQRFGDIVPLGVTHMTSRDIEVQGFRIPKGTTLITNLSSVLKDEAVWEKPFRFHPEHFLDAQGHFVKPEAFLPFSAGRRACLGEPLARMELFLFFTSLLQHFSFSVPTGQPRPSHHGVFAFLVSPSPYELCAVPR

Cytochrome P450 3A4 = Cytochrome P450 3A4 (Homo sapiens, UniProt P08684); experiment: Inhibition of CYP3A4; assay type: ADME
Chain of Cytochrome P450 3A4 (P08684 whole entry): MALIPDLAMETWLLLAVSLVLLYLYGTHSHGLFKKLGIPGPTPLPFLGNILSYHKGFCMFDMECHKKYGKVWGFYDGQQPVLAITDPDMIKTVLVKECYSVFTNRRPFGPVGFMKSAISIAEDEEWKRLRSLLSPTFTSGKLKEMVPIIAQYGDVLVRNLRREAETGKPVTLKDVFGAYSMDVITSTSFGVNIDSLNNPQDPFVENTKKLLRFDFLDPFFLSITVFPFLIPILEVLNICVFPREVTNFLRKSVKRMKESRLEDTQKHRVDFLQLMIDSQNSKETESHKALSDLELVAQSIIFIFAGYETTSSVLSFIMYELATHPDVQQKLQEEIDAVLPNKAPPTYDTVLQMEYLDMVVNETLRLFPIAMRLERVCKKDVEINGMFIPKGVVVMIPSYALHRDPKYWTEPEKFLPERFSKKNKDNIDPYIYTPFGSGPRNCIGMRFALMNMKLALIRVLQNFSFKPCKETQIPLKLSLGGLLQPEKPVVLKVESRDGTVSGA

D(2) dopamine receptor = D(2) dopamine receptor (Homo sapiens, UniProt P14416); experiment: Binding affinity to dopamine D2 receptor
Chain of D(2) dopamine receptor (P14416 whole entry): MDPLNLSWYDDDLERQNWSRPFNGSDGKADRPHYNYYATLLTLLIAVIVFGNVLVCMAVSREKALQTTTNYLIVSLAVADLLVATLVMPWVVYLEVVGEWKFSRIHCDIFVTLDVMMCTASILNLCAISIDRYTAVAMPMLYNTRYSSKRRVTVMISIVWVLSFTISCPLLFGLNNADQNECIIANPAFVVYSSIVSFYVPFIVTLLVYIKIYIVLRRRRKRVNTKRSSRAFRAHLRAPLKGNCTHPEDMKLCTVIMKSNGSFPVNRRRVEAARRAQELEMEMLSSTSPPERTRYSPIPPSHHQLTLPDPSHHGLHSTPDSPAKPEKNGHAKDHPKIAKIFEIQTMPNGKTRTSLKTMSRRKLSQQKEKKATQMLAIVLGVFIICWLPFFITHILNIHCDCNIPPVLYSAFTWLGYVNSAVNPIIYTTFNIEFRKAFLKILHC

[9] = molecular target: 5-hydroxytryptamine receptor 1D (Homo sapiens, UniProt P28221); experiment: Binding affinity to 5HT1d receptor
Chain of 5-hydroxytryptamine receptor 1D (P28221 whole entry): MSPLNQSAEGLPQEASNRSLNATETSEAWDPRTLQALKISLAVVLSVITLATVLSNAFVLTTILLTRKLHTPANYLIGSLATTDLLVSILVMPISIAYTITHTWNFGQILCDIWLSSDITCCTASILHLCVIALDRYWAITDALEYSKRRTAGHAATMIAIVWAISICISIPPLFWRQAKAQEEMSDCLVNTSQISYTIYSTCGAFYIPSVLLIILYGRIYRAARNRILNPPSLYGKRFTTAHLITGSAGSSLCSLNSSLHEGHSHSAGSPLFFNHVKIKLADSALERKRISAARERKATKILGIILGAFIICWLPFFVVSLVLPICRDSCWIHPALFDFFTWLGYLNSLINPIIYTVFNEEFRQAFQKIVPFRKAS

[10] = Metabolic stability in rat microsomes assessed as half life; assay type: ADME, Microsome
[11] = molecular target: 5-hydroxytryptamine receptor 7 (Homo sapiens, UniProt P34969); experiment: Binding affinity to 5HT7 receptor
Chain of 5-hydroxytryptamine receptor 7 (P34969 whole entry): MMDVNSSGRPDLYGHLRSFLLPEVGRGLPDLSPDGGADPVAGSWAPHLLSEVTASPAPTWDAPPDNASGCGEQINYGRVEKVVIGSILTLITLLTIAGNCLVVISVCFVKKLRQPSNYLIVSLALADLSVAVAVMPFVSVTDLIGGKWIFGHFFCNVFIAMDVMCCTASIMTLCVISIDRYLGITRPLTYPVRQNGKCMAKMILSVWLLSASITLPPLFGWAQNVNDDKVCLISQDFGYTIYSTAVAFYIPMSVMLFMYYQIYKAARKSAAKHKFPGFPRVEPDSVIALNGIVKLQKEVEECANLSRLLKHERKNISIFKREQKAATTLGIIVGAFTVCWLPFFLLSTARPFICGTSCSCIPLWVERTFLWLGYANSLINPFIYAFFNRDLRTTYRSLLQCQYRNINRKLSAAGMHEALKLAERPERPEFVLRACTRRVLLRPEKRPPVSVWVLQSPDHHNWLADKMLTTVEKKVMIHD

[12] = molecular target: T4, 5-hydroxytryptamine receptor 1A (Homo sapiens, UniProt P08908); experiment: Binding affinity to 5HT1a receptor
T4 sequence (P08908 whole entry): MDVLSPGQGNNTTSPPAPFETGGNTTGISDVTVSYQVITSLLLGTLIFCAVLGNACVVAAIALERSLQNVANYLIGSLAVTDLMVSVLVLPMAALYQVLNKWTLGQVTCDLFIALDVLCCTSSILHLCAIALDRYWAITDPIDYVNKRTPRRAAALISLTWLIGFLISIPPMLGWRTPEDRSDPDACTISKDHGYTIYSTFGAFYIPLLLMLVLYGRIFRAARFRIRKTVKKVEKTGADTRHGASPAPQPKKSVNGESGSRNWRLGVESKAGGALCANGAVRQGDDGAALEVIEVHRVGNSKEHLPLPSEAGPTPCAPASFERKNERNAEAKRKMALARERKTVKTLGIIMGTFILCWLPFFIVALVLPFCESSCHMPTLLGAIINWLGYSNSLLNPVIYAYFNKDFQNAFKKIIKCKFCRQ

[13] = molecular target: T1, 5-hydroxytryptamine receptor 6; experiment: Agonist activity at human 5HT6 receptor expressed in CHOK1 cells assessed as increase in 5HT-induced intracellular calcium level at 0.1 to 10 uM by FLIPR assay; assay type: functional, cell-based; settings: CHO-K1
Rattus norvegicus = experiment: Cognitive enhancing effect in Sprague-Dawley rat assessed as reversal of 24 hrs delay-induced retention deficit behavior at 10 mg/kp, po by novel object recognition assay; assay type: functional, organism-based

T1 sequence (P50406 whole entry): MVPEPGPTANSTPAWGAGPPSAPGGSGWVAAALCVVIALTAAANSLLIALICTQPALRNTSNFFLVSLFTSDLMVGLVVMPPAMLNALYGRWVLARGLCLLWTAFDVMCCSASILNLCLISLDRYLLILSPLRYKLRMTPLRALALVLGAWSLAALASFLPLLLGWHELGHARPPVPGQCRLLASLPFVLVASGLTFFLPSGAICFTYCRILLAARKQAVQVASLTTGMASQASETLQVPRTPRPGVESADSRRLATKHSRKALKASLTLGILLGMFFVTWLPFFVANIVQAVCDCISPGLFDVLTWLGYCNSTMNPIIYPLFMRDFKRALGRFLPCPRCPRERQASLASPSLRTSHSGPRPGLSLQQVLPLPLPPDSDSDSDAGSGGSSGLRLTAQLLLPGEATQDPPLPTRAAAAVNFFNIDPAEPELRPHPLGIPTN

Structure (SMILES): CN(C)CCC(=O)Nc1ccc2cnn(S(=O)(=O)c3cccc4ccccc34)c2c1
- pIC50 [1]: 7.28
- Imax [1]: 100%

Structure (SMILES): O=S(=O)(c1cccc2ccccc12)n1ncc2ccc(NCC3CCNCC3)cc21
- pKi [2]: 7.74

Structure (SMILES): CNCCC(=O)Nc1ccc2cnn(S(=O)(=O)c3cccc4ccccc34)c2c1
- pIC50 [1]: 7.59
- Imax [1]: 100%

Structure (SMILES): O=C(Nc1ccc2cnn(S(=O)(=O)c3cccc4ccccc34)c2c1)[C@@H]1CCCNC1
- pKi [2]: 8.40
- Activity [1]: Active

Structure (SMILES): CCN(CC)CCC(=O)Nc1ccc2cnn(S(=O)(=O)c3cccc4ccccc34)c2c1
- pIC50 [1]: 6.59
- Imax [1]: 100%

Structure (SMILES): O=C(CCN1CCCCC1)Nc1ccc2cnn(S(=O)(=O)c3cccc4ccccc34)c2c1
- pIC50 [1]: 6.77
- Imax [1]: 100%

Structure (SMILES): NCCC(=O)Nc1ccc2cnn(S(=O)(=O)c3cccc4ccccc34)c2c1
- Activity [13]: inactive

More lines, main results first:

- pKi [3]: 6.81
- pIC50 (Cytochrome P450 2C9): 5.15
- bioavailability [4]: 7%
- pKi [5]: < 5.70
- pKi [6]: < 5.70
- pKi [7]: < 5.70
- half-life [8]: > 30 min
- pIC50 (Cytochrome P450 2D6): 3.70
- pIC50 (Cytochrome P450 3A4): 4.52
- pKi (D(2) dopamine receptor): < 5.70
- pKi [9]: < 5.70
- pIC50 [1]: 7.96
- Imax [1]: 100%
- half-life [10]: 28 min
- pKi [11]: 5.29
- pKi [12]: 5.19
Structure (SMILES): NCCC(=O)Nc1cccc2c1cnn2S(=O)(=O)c1cccc2ccccc12

- pKi [2]: 8.89
- pKi [3]: 6.76
- pIC50 (Cytochrome P450 2C9): 3.85
- bioavailability [4]: 24%
- Activity [13]: inactive
- pKi [5]: 5.74
- pKi [6]: < 5.70
- pKi [7]: < 5.70
- half-life [8]: > 30 min
- pIC50 (Cytochrome P450 2D6): 3.96
- pIC50 (Cytochrome P450 3A4): 3.59
- pKi (D(2) dopamine receptor): < 5.70
- pKi [9]: < 5.70
- pIC50 [1]: 8.00
- Imax [1]: 100%
- half-life [10]: 8 min
- pKi [11]: 5.24
- pKi [12]: 5.25
Structure (SMILES): O=C(Nc1ccc2cnn(S(=O)(=O)c3cccc4ccccc34)c2c1)C1CCCNC1 (racemic)
- Activity (Rattus norvegicus): Active

- pKi [2]: 8.49
- Activity [1]: Active
Structure (SMILES): O=C(Nc1ccc2cnn(S(=O)(=O)c3cccc4ccccc34)c2c1)[C@H]1CCCNC1

- pKi [3]: 6.89
- pIC50 (Cytochrome P450 2C9): 3.43
- bioavailability [4]: 5%
- Activity [13]: inactive
- pKi [5]: < 5.70
- pKi [6]: < 5.70
- pKi [7]: < 5.70
- half-life [8]: > 30 min
- pIC50 (Cytochrome P450 2D6): 3.46
- pIC50 (Cytochrome P450 3A4): 4.21
- pKi (D(2) dopamine receptor): < 5.70
- pKi [9]: < 5.70
- pIC50 [1]: 8.10
- Imax [1]: 100%
- half-life [10]: 11 min
- pKi [11]: 5.16
- pKi [12]: 5.07
Structure (SMILES): O=C(Nc1ccc2cnn(S(=O)(=O)c3cccc4ccccc34)c2c1)C1CCNCC1
